Assay results: patent US12698507B2, “Methods and compositions for conferring and/or enhancing herbicide tolerance using protoporphyrinogen IX oxidase of various cyanobacteria or variant thereof” (FarmHannong Co., Ltd., priority 2019, dated 2026)
Like-named read-outs stand apart in the source and are kept apart here.

Assays:
[1] = molecular target: T1, Thermosynechococcus elongatus PKUAC-SCTE542 protoporphyrinogen IX oxidase CyPPO19, wild type, SEQ ID NO: 1 (MBP fusion) (Thermosynechococcus sichuanensis, UniProt A0A7D6JSC1); assay: PPO enzyme inhibition assay (IC50 for herbicides), CyPPO19 wild type fused to MBP; type: biochemical
T1 sequence (A0A7D6JSC1 1-467): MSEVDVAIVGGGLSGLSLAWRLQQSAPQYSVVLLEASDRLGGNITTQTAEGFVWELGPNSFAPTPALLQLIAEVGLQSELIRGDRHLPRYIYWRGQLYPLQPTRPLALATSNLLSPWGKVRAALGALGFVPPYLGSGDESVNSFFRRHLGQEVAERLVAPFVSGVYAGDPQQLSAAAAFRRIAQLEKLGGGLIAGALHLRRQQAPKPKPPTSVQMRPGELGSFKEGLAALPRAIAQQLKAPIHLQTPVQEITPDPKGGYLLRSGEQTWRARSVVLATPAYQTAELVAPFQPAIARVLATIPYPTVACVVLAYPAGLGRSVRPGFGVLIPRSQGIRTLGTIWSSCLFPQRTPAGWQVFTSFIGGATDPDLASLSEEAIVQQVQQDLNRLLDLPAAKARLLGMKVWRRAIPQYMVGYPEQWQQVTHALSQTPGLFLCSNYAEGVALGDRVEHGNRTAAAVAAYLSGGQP

[2] = molecular target: Thermosynechococcus elongatus PKUAC-SCTE542 protoporphyrinogen IX oxidase CyPPO19 (SEQ ID NO: 1) variant R89A (MBP fusion) (Thermosynechococcus sichuanensis, UniProt A0A7D6JSC1, R89A); assay: biochemical
Sequence of Thermosynechococcus elongatus PKUAC-SCTE542 protoporphyrinogen IX oxidase CyPPO19 (SEQ ID NO: 1) variant R89A (MBP fusion) (A0A7D6JSC1 entry or part of it R89A): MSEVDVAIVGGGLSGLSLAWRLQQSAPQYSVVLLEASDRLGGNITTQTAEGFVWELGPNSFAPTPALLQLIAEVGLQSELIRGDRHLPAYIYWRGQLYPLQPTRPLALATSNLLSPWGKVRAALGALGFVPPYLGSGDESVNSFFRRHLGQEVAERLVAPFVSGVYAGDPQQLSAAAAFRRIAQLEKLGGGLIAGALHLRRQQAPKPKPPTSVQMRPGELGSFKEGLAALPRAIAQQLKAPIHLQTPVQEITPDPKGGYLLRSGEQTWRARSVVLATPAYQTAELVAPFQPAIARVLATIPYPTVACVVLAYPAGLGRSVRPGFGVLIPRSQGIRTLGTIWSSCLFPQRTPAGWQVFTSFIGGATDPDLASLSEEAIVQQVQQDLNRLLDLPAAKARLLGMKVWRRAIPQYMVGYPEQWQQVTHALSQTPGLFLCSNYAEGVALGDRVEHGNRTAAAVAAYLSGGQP

[3] = molecular target: Thermosynechococcus elongatus PKUAC-SCTE542 protoporphyrinogen IX oxidase CyPPO19 (SEQ ID NO: 1) variant V165C (MBP fusion) (Thermosynechococcus sichuanensis, UniProt A0A7D6JSC1, V165C); assay: PPO enzyme inhibition assay (IC50 for herbicides), CyPPO19 V165C fused to MBP; type: biochemical
Sequence of Thermosynechococcus elongatus PKUAC-SCTE542 protoporphyrinogen IX oxidase CyPPO19 (SEQ ID NO: 1) variant V165C (MBP fusion) (A0A7D6JSC1 entry or part of it V165C): as the sequence (A0A7D6JSC1 entry or part of it R89A) above, with A89R, V165C counted along it

[4] = molecular target: Thermosynechococcus elongatus PKUAC-SCTE542 protoporphyrinogen IX oxidase CyPPO19 (SEQ ID NO: 1) variant V165S (MBP fusion) (Thermosynechococcus sichuanensis, UniProt A0A7D6JSC1, V165S); assay: biochemical; conditions: 50 μM protoporphyrinogen IX, pH 7.5, room temperature, 30 min, 10,000 means equivalent to or higher, read-out: IC50
Sequence of Thermosynechococcus elongatus PKUAC-SCTE542 protoporphyrinogen IX oxidase CyPPO19 (SEQ ID NO: 1) variant V165S (MBP fusion) (A0A7D6JSC1 entry or part of it V165S): as the sequence (A0A7D6JSC1 entry or part of it R89A) above, with A89R, V165S counted along it

[5] = molecular target: Thermosynechococcus elongatus PKUAC-SCTE542 protoporphyrinogen IX oxidase CyPPO19 (SEQ ID NO: 1) variant A167C (MBP fusion) (Thermosynechococcus sichuanensis, UniProt A0A7D6JSC1, A167C); assay: biochemical
Sequence of Thermosynechococcus elongatus PKUAC-SCTE542 protoporphyrinogen IX oxidase CyPPO19 (SEQ ID NO: 1) variant A167C (MBP fusion) (A0A7D6JSC1 entry or part of it A167C): as the sequence (A0A7D6JSC1 entry or part of it R89A) above, with A89R, A167C counted along it

[6] = molecular target: Thermosynechococcus elongatus PKUAC-SCTE542 protoporphyrinogen IX oxidase CyPPO19 (SEQ ID NO: 1) variant A167I (MBP fusion) (Thermosynechococcus sichuanensis, UniProt A0A7D6JSC1, A167I); assay: biochemical; conditions: 50 μM protoporphyrinogen IX, pH 7.5, room temperature, 30 min, 10,000 means equivalent to or higher, read-out: IC50
Sequence of Thermosynechococcus elongatus PKUAC-SCTE542 protoporphyrinogen IX oxidase CyPPO19 (SEQ ID NO: 1) variant A167I (MBP fusion) (A0A7D6JSC1 entry or part of it A167I): as the sequence (A0A7D6JSC1 entry or part of it R89A) above, with A89R, A167I counted along it

[7] = molecular target: Thermosynechococcus elongatus PKUAC-SCTE542 protoporphyrinogen IX oxidase CyPPO19 (SEQ ID NO: 1) variant A167L (MBP fusion) (Thermosynechococcus sichuanensis, UniProt A0A7D6JSC1, A167L); assay: biochemical; conditions: 50 μM protoporphyrinogen IX, pH 7.5, room temperature, 30 min, 10,000 means equivalent to or higher, read-out: IC50
Sequence of Thermosynechococcus elongatus PKUAC-SCTE542 protoporphyrinogen IX oxidase CyPPO19 (SEQ ID NO: 1) variant A167L (MBP fusion) (A0A7D6JSC1 entry or part of it A167L): as the sequence (A0A7D6JSC1 entry or part of it R89A) above, with A89R, A167L counted along it

[8] = molecular target: Thermosynechococcus elongatus PKUAC-SCTE542 protoporphyrinogen IX oxidase CyPPO19 (SEQ ID NO: 1) variant V305M (MBP fusion) (Thermosynechococcus sichuanensis, UniProt A0A7D6JSC1, V305M); assay: PPO enzyme inhibition assay (IC50 for herbicides), CyPPO19 V305M fused to MBP; type: biochemical
Sequence of Thermosynechococcus elongatus PKUAC-SCTE542 protoporphyrinogen IX oxidase CyPPO19 (SEQ ID NO: 1) variant V305M (MBP fusion) (A0A7D6JSC1 entry or part of it V305M): as the sequence (A0A7D6JSC1 entry or part of it R89A) above, with A89R, V305M counted along it

[9] = molecular target: Thermosynechococcus elongatus PKUAC-SCTE542 protoporphyrinogen IX oxidase CyPPO19 (SEQ ID NO: 1) variant V305L (MBP fusion) (Thermosynechococcus sichuanensis, UniProt A0A7D6JSC1, V305L); assay: PPO enzyme inhibition assay (IC50 for herbicides), CyPPO19 V305L fused to MBP; type: biochemical
Sequence of Thermosynechococcus elongatus PKUAC-SCTE542 protoporphyrinogen IX oxidase CyPPO19 (SEQ ID NO: 1) variant V305L (MBP fusion) (A0A7D6JSC1 entry or part of it V305L): as the sequence (A0A7D6JSC1 entry or part of it R89A) above, with A89R, V305L counted along it

[10] = tested on: wild type A. thaliana (Col-0); assay: Herbicide injury of wild type A. thaliana (Col-0) after spraying; type: in vivo, Arabidopsis thaliana; conditions: 1 μM tiafenacil and 0.05% Silwet L-77, within 7 days
[11] = tested on: transgenic A. thaliana (T1) transformed with CyPPO19, CyPPO18 or variant genes; assay: Herbicide tolerance of transgenic A. thaliana (T1 plants); type: in vivo, Arabidopsis thaliana; conditions: 1 μM tiafenacil and 0.05% Silwet L-77
From the text: Transgenic plants were screened with glufosinate tolerance which was conferred by Bar gene expression in the binary vector. […] They were, then, transplanted into soil and grown to obtain T1 plants.

[12] = tested on: A. thaliana; assay: PPO-inhibiting herbicide tolerance test of transgenic A. thaliana (herbicide spray, injury index); type: in vivo, Arabidopsis thaliana; conditions: transgenic A. thaliana (T2), tiafenacil or flumioxazin spray
[13] = tested on: PPO-deficient BT3 E. coli (ΔPPO); assay: PPO-inhibiting herbicide tolerance test of PPO variants in E. coli (growth on herbicide-containing LB agar); type: cell-based; conditions: CyPPO18 variants in BT3 (ΔPPO) E. coli; LB agar with 0 to 2,000 μM herbicide, 37° C., dark, 16-20 hours
How it was run: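 Tolerance was scored against wild-type enzyme: '−' for equal growth, one '+' per 10-fold gain, up to '+++++'. ΔPPO BT3 cells carrying variant plasmids, spotted as a 10-fold dilution series from OD600=0.5, grew 16-20 h at 37° C. in the dark on ampicillin LB agar containing 0 to 2,000 μM herbicide.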

| Molecule | IC50 [2] [nM] | IC50 [3] [nM] | IC50 [4] [nM] | IC50 [5] [nM] | IC50 [6] [nM] | IC50 [7] [nM] | IC50 [8] [nM] | IC50 [9] [nM] | herbicide tolerance compared to non-transgenic plants [12] | also measured |
| --- | --- | --- | --- | --- | --- | --- | --- | --- | --- | --- |
| CS(=O)(=O)NC(=O)c1cc(Oc2ccc(C(F)(F)F)cc2Cl)ccc1[N+](=O)[O-] [Fomesafen] | 2360 | 330 | 348 | 843 | 899 | 1760 | 257 | 466 |  | IC50 [1]: 242 nM |
| COC(=O)CCNC(=O)C(C)Sc1cc(-n2c(=O)cc(C(F)(F)F)n(C)c2=O)c(F)cc1Cl (centres unmarked) [Tiafenacil] | 113 | 186 | 269 | 342 | 248 | 597 | 392 | 1140 |  | IC50 ([1]; CyPPO19 WT, 50 μM protoporphyrinogen IX, pH 7.5, room temperature, 30 min, read-out: IC50): 67 nM; survival after herbicide treatment [10]: completely died within 7 days; survival after herbicide treatment [11]: survived |
| CyPPO18 WT: PPO protein derived from Thermosynechococcus vulcanus NIES-2134 strain, SEQ ID NO: 3 (protein, Synthetic_PPO of Thermosynechococcus vulcanus NIES-2134 (BAY51976)) MIEVDVAIVGGGLSGLSVAWRLQRSAPHYSGVLLEASDRLGGNITTQAAEGFVWELGPNSFAPTPALLQLIAEVGLHSELIRGDRHLPRYIYWRGELYPLEPTRPLALATSNLLSPWGKVRAALGALGFVPPYLGSGDESVDSFFRRHLGQEVAERLVAPFVSGVYAGDPQQLSAAAAFRRIAQLEKLGGSLIAGALRLRRQQPPQPKPPAQVQMRPGELGSFREGLAALPRAIAQQLKAPLHLQTPVEAITPEPKGGYLLRSGEQTWHARSVVLATPAYQSAELVAPFQPAIARALATIPYPTVACVVLAYPAGLGRSVRPGFGVLVPRGQGIRTLGTIWSSCLFPQRTPAGWQVFTSFIGGATDPDLASLREEAIVEQVQQDLTRLLDLPAAKARLLGMKVWRRAIPQYIVGYPQQWQQLTHALTQTPGLFLCSNYAEGVALGDRVEHGNRTAAAVAAYLAGGQS |  |  |  |  |  |  |  |  | increased herbicide tolerance |  |
| CyPPO18 R89A + V165C + A167L + V305M + F360I: variant of CyPPO18 PPO protein (SEQ ID NO: 3) (protein, Synthetic_PPO of Thermosynechococcus vulcanus NIES-2134 (BAY51976)) MIEVDVAIVGGGLSGLSVAWRLQRSAPHYSGVLLEASDRLGGNITTQAAEGFVWELGPNSFAPTPALLQLIAEVGLHSELIRGDRHLPAYIYWRGELYPLEPTRPLALATSNLLSPWGKVRAALGALGFVPPYLGSGDESVDSFFRRHLGQEVAERLVAPFVSGCYLGDPQQLSAAAAFRRIAQLEKLGGSLIAGALRLRRQQPPQPKPPAQVQMRPGELGSFREGLAALPRAIAQQLKAPLHLQTPVEAITPEPKGGYLLRSGEQTWHARSVVLATPAYQSAELVAPFQPAIARALATIPYPTMACVVLAYPAGLGRSVRPGFGVLVPRGQGIRTLGTIWSSCLFPQRTPAGWQVFTSIIGGATDPDLASLREEAIVEQVQQDLTRLLDLPAAKARLLGMKVWRRAIPQYIVGYPQQWQQLTHALTQTPGLFLCSNYAEGVALGDRVEHGNRTAAAVAAYLAGGQS |  |  |  |  |  |  |  |  |  | tolerance level relative to wild type, Carfentrazone [13]: ++ (‘+’ per each 10-fold resistance); tolerance level relative to wild type, Flumioxazin [13]: +++++ (until ‘+++++’ as maximal resistance); tolerance level relative to wild type, Fomesafen [13]: +++++ (until ‘+++++’ as maximal resistance); tolerance level relative to wild type, Oxyfluorfen [13]: ++ (‘+’ per each 10-fold resistance); tolerance level relative to wild type, Saflufenacil [13]: +++++ (until ‘+++++’ as maximal resistance); tolerance level relative to wild type, Sulfentrazone [13]: +++++ (until ‘+++++’ as maximal resistance); tolerance level relative to wild type, Tiafenacil [13]: +++++ (until ‘+++++’ as maximal resistance) |
| CyPPO19 WT: PPO protein derived from Thermosynechococcus elongatus PKUAC-SCTE542 strain, SEQ ID NO: 1 (protein, Synthetic_PPO of Thermosynechococcus elongatus PKUAC-SCTE542 (comprising GenBank No. CP032152.1)) MSEVDVAIVGGGLSGLSLAWRLQQSAPQYSVVLLEASDRLGGNITTQTAEGFVWELGPNSFAPTPALLQLIAEVGLQSELIRGDRHLPRYIYWRGQLYPLQPTRPLALATSNLLSPWGKVRAALGALGFVPPYLGSGDESVNSFFRRHLGQEVAERLVAPFVSGVYAGDPQQLSAAAAFRRIAQLEKLGGGLIAGALHLRRQQAPKPKPPTSVQMRPGELGSFKEGLAALPRAIAQQLKAPIHLQTPVQEITPDPKGGYLLRSGEQTWRARSVVLATPAYQTAELVAPFQPAIARVLATIPYPTVACVVLAYPAGLGRSVRPGFGVLIPRSQGIRTLGTIWSSCLFPQRTPAGWQVFTSFIGGATDPDLASLSEEAIVQQVQQDLNRLLDLPAAKARLLGMKVWRRAIPQYMVGYPEQWQQVTHALSQTPGLFLCSNYAEGVALGDRVEHGNRTAAAVAAYLSGGQP |  |  |  |  |  |  |  |  | increased herbicide tolerance |  |
